Results on 2 molecules are retold here after patent publication US20210196714A1, “COMPOSITIONS AND METHODS FOR TREATING DISORDERS CHARACTERIZED WITH ABERRANT RAS/MAPK SIGNALING” (Duke University, priority 2018, published 2021).

Molecules are shown by their SMILES. “Also recorded” adds a separate entry of the source.

One test concerns the target ERK2 (Homo sapiens, UniProt P28482). The conditions noted are these: see WO 2002064586; cited from earlier work.
The test system of test [1] is kmt2d CRISPR mosaic mutants (F0). Description: CE defects in kmt2d-CRISPR F0 mutants. Format: in vivo, zebrafish. The conditions noted are these: kmt2d-CRISPR F0, 100 nM; listed as dmDf. The source says: Prior and current genetic zebrafish models of KS focused on the newly discovered rap1a/rap1b genes. However, from the perspective of clinical utility, dmDf should be efficacious in kmt2d mutants, since loss of function mutations of the human ortholog account for as much as 75% of KS (see, Ng, S. B. et al. Nat Genet 42, 790-3 (2010); Li, Y. et al. Hum Genet 130, 715-24 (2011); Lu, J., Mo, G., Ling, Y. & Ji, L. Mol Med Rep 14, 3641-5 (2016); Miyake, N. et al. Am J Med Genet A 161a, 2234-43 (2013)). Therefore, experiments supplemented the testing tools by creating a kmt2d CRISPR/Cas9 mutant. A guide RNA targeting exon 4 of kmt2d induced efficient (˜99%) Cas9-mediated genome editing (FIG. 8). […]
For convergence and extension (CE) phenotyping, embryos were scored as described (see, Leitch, C. C. et al. Nat Genet 40, 443-8 (2008)) at the 8-10 somite stage, and images were captured using an AZ100 microscope and NIS Elements software (Nikon). […] The distance between Meckel's (MK) and ceratohyal (CH) cartilages was measured on ventral bright field images with Image J (NIH). […] Fluorescence signal on embryo heads was imaged with the Nikon AZ100 microscope and DS-Qi1MC digital camera using […] Z-stacks to generate extended depth of focus images. Cell numbers were quantified using the ImageJ ICTN plugin (NIH). […]

Chain of ERK2 (P28482 whole entry, species assumed): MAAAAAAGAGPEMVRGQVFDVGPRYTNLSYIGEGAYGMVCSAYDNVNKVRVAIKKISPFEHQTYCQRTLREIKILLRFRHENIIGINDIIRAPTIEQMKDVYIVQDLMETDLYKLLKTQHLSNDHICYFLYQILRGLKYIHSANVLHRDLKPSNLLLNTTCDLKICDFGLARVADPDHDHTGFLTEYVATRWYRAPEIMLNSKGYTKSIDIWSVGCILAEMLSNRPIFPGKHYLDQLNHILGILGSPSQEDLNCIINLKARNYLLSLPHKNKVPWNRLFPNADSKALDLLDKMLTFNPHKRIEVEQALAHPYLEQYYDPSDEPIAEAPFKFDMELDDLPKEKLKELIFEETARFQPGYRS

For the molecule `CC[C@@H](CO)Nc1ncc(C)c(-c2c[nH]c(C(=O)N[C@H](CO)c3cccc(Cl)c3)c2)n1` [Compound 2, N-((S)-1-(3-chlorophenyl)-2-hydroxyethyl)-4-(2-(((S)-1-hydroxybutan-2-yl)amino)-5-methylpyrimidin-4-yl)-1H-pyrrole-2-carboxamide], the ERK2 inhibitor potency result on ERK2 is on record as “potent”.
As for `CC(C)c1nc(-c2cccc(NS(=O)(=O)c3c(F)cccc3F)c2F)c(-c2ccnc(N)n2)s1` [Compound 8, desmethyl-Dabrafenib], the CE defects result in test [1] is given as “ameliorates the CE defects; also recorded: ameliorated significantly”.
